{
  "source": "patent US6924311B2",
  "about": "“Methods for affecting various diseases utilizing LXR compounds” (X-Ceptor Therapeutics, Inc., priority 2001, dated 2005)",
  "type_in_all_cases": "cell-based, mice",
  "key": {"[1]": {"test_system": "ABCA1 mRNA", "experiment": "ABCA1 mRNA induction in cultured peritoneal macrophages", "details": "24 hours", "from_the_text": "(§1) The individual contributions of both receptors to macrophage gene expression were examined by first measuring the amount of mRNA encoding LXRα and LXRβ in thioglycolate-elicited peritoneal macrophages obtained from mixed wildtype mice. Thioglycolate-elicited peritoneal macrophages were isolated from mice 4 days after peritoneal injection of thioglycolate media. Peritoneal macrophages were harvested by lavage of the peritoneum with phosphate buffered saline (PBS), cells were washed, transferred to 60 mm culture plates and incubated at 37° C. in RPMI 1640 media (Life Technologies) containing 10% FBS, 2 mmol/L glutamine, 100 μg/mL streptomycin and 100 IU penicillin (Life Technologies). After 5 hours at 37° C., cells were washed 5 times with PBS to remove non-adherent cells and adherent cells were further incubated in RPMI 1640 media supplemented with 10% FBS for 24 hours. To determine the mRNA levels of LXRα and LXRβ, after 24 hours total RNA was isolated from cultured macrophages using RNeasy kits (QIAGEN Inc.) according to the supplier's total RNA isolation procedure. The RNA samples were further treated with deoxyribonuclease I to eliminate contaminating genomic DNA. LXRα and LXRβ mRNA levels were than analyzed by real-time based quantitative PCR using Perkin Elmer ABI Prism 7700 and Sequence Detection System software (Perkin Elmer). […] To further examine LXR-dependent gene expression in macrophages, peritoneal macrophages were isolated as described above from mixed wildtype, LXRα−/− (C57BL/6), LXRβ−/−, and LXRαβ−/− mice. After removal of non-adherent cells, the remaining macrophages were than cultured in either the absence or presence of LXR pan-agonist (1.0 μM Compound 1) for 24 hours. At the end of the experiment total RNA was isolated from cultured macrophages using RNeasy kits (QIAGEN Inc.) according to the supplier's total RNA isolation procedure. RNA samples were further treated with deoxyribonuclease I to eliminate contaminating genomic DNA before use. The LXR agonist-dependent induction of the ABCA1 and ABCG1 mRNAs were than analyzed by real-time based quantitative PCR using Perkin Elmer ABI Prism 7700 and Sequence Detection System software (Perkin Elmer). ABCA1 and ABCG1 function as efflux pumps that mediate the transfer of intracellular cholesterol out of cells to HDL particles, a process referred to as reverse cholesterol transport. […] Elimination of LXRα activity (LXRα−/−) has no effect on the agonist-dependent response. In contrast, elimination of LXRβ activity (LXRβ−/−) reduces the agonist-dependent induction of ABCA1 by 82% and the ABCG1 induction by 50%. […] Thus LXRβ alone is sufficient to allow the maximum induction of ABCA1 and ABCG1 in peritoneal macrophages."}, "[2]": {"test_system": "ABCG1 mRNA", "experiment": "ABCG1 mRNA induction in cultured peritoneal macrophages", "details": "24 hours", "from_the_text": "as §1"}, "[3]": {"test_system": "peritoneal macrophages", "experiment": "ApoA1-dependent cholesterol efflux assay (reverse cholesterol transport) in peritoneal macrophages", "details": "1.0 μM", "from_the_text": "The individual contributions of both receptors to macrophage gene expression were examined by first measuring the amount of mRNA encoding LXRα and LXRβ in thioglycolate-elicited peritoneal macrophages obtained from mixed wildtype mice. Thioglycolate-elicited peritoneal macrophages were isolated from mice 4 days after peritoneal injection of thioglycolate media. Peritoneal macrophages were harvested by lavage of the peritoneum with phosphate buffered saline (PBS), cells were washed, transferred to 60 mm culture plates and incubated at 37° C. in RPMI 1640 media (Life Technologies) containing 10% FBS, 2 mmol/L glutamine, 100 μg/mL streptomycin and 100 IU penicillin (Life Technologies). After 5 hours at 37° C., cells were washed 5 times with PBS to remove non-adherent cells and adherent cells were further incubated in RPMI 1640 media supplemented with 10% FBS for 24 hours. To determine the mRNA levels of LXRα and LXRβ, after 24 hours total RNA was isolated from cultured macrophages using RNeasy kits (QIAGEN Inc.) according to the supplier's total RNA isolation procedure. The RNA samples were further treated with deoxyribonuclease I to eliminate contaminating genomic DNA. LXRα and LXRβ mRNA levels were than analyzed by real-time based quantitative PCR using Perkin Elmer ABI Prism 7700 and Sequence Detection System software (Perkin Elmer). […] Since ABCA1 is involved in mediating reverse cholesterol transport, peritoneal macrophages isolated as described above and cultured for 24 hours in the absence or presence of LXR agonist (1.0 μM Compound 1) were examined in a cholesterol efflux assay which measures reverse cholesterol transport in vitro. Mouse peritoneal macrophages isolated as described above from wildtype (mixed and C57BL/6), LXRα−/− (C57BL/6), LXRβ−/−, and LXRαβ−/− mice were cultured in 96 well plates (5×10^4 cells/well) at 37° C. After 24 hours, cells were labeled for 48 hours with 0.2 μCi/ml ^14C-cholesterol in RPMI 1640 medium with 1% FBS. Following the labeling period, ^14C-cholesterol was removed and the cells were cultured for 24 hours in serum free RPMI 1640 media in the presence or absence of 10 μg/ml apolipoprotein A (ApoA1). In this assay ApoA1 acts as a cholesterol acceptor and mimics the cholesterol-accepting function performed by HDL particles in vivo. Following this incubation, the media is removed, cells are washed and than lysed with 0.2 M sodium hydroxide. To determine ApoA1-dependent cholesterol efflux, the amount of ^14C-cholesterol present in the media is divided by the total counts (media+cell lysate) and the value determined in the absence of ApoA is subtracted from the value determined in the presence of ApoA. […] No effect is observed upon elimination of LXRα alone."}, "[4]": {"details": "LXRβ−/− macrophages versus wildtype, 1.0 μM"}, "[5]": {"details": "Mus musculus, Macrophage, wildtype macrophages"}},
  "data": [
    {"smiles": "O=S(=O)(c1ccccc1)N(CC(F)(F)F)c1ccc(C(O)(C(F)(F)F)C(F)(F)F)cc1", "note": "[Compound 1, N-(2,2,2-trifluoroethyl)-N-[4-(2,2,2-trifluoro-1-hydroxy-1-trifluoromethylethyl)-phenyl]-benzene sulfonamide]", "values": [
      {"measurement": "agonist-dependent ABCA1 mRNA induction", "setting": "[1]; LXRαβ−/− macrophages, 1.0 μM", "result": "completely blocks the response"},
      {"measurement": "agonist-dependent ABCA1 mRNA induction", "setting": "[1]; LXRα−/− macrophages, 1.0 μM", "result": "no effect"},
      {"measurement": "reduction of agonist-dependent induction of ABCA1", "setting": "[1]; [4]", "result": 82, "unit": "%"},
      {"measurement": "fold induction at 1 µM", "setting": "[1]; [5]", "result": 28},
      {"measurement": "agonist-dependent ABCG1 mRNA induction", "setting": "[2]; LXRαβ−/− macrophages, 1.0 μM", "result": "completely blocks the response"},
      {"measurement": "agonist-dependent ABCG1 mRNA induction", "setting": "[2]; LXRα−/− macrophages, 1.0 μM", "result": "no effect"},
      {"measurement": "reduction of agonist-dependent induction of ABCG1", "setting": "[2]; [4]", "result": 50, "unit": "%"},
      {"measurement": "fold induction at 1 µM", "setting": "[2]; [5]", "result": 8},
      {"measurement": "reverse cholesterol transport (cholesterol efflux)", "setting": "[3]; LXRαβ−/− macrophages", "result": "further reduced"},
      {"measurement": "reverse cholesterol transport (cholesterol efflux)", "setting": "[3]; LXRα−/− (C57BL/6) macrophages", "result": "No effect"},
      {"measurement": "reverse cholesterol transport (cholesterol efflux)", "setting": "[3]; LXRβ−/− macrophages", "result": "significantly reduced"},
      {"measurement": "reverse cholesterol transport (cholesterol efflux)", "setting": "[3]; wildtype (mixed and C57BL/6) macrophages", "result": "stimulates reverse cholesterol transport"}
    ]}
  ]
}
